Where a name gives a salt, the structure may show the parent alone. Read-outs that look alike come from different tables or passages of the source.
Tests used:
[1] = test system: genetically hypertensive rats; experiment: Arterial pressure and heart rate per os in genetically hypertensive rats (SHR); assay type: in vivo, rat (genetically hypertensive; settings: for HR DE25 (ED25, dose giving an increase of the heart rate of 25%): > = no increase of the heart rate at the maximal tested dose; for ED25: po, read-out: BP DE25 (ED25, dose giving a drop of the blood pressure of 25%)
Excerpt: activity on the arterial pressure and on the heart rate has been studied per os in genetically hypertensive rats according to the method described in Pharm. Research Comm.

strips of rabbit aorta = experiment: Spasmolytic activity in vitro on strips of rabbit aorta with potassium chloride induced spasm; assay type: cell-based; settings: Oryctolagus cuniculus, spasm with 30 mM potassium chloride, read-out: EC50 (relaxing 50% the strip of rabbit aorta)
Procedure: spasmolytic activity is determined evaluating the direct relaxant effect on the vasal smooth muscle in vitro on strips of rabbit aorta in which spasm was induced by potassium chloride according to the method described in Journ. of Pharm. and Exper. […] The products were added at sequentially cumulative molar doses and their activity indicated as Effective Concentration (EC50).

in vivo = settings: mouse, ip
[2] = test system: guinea-pig isolated atria; settings: isoprenaline agonist, product at 10^-4 M
[3] = SHR rat, per os, at the moment of maximum effect

Structure (SMILES) | HR DE25 (ED25, dose giving an increase of the heart rate of 25%) ([1]; SHR rat, per os) | ED25 [1, 3] | EC50 (strips of rabbit aorta) | LD50 (in vivo) | DR4 (dose ratio of agonist EC50 in the presence and in the absence of the product) [2] | ED25 ([1]; Rattus norvegicus)
CC(C)=NNc1ccc(OCC(O)CNC(C)C)nn1.Cl.Cl (stereo not drawn) [3-(3-Isopropylamino-2-hydroxypropoxy)-6-isopropylidenhydrazinopyridazine dihydrochloride] | > 100 mg/kg/os | 350 mg/kg | 1700 µM | 500 mg/kg | 77 | –
CC(C)=NNc1ccc(OCC(O)CNC(C)(C)C)nn1 (stereo not drawn) [3-(3-t.Butylamino-2-hydroxypropoxy)-6-isopropylidenhydrazinopyridazine dihydrochloride] | > 100 mg/kg/os | 50 mg/kg | – | 500 mg/kg | 78 | –
CCC(C)NCC(O)COc1ccc(NN=C(C)C)nn1.Cl.Cl (stereo not drawn) [3-[3-(2-butyl)amino-2-hydroxypropoxy]6-isopropylidenhydrazinopyridazine dihydrochloride] | > 50 mg/kg/os | 25 mg/kg | – | 300 mg/kg | 72 | –
CC(C)=NNc1ccc(OCC(O)CNC(C)CCc2ccccc2)nn1.Cl.Cl (stereo not drawn) [3-[3-(4-phenyl-2-butyl)amino-2-hydroxypropoxy]6-isopropylidenhydrazinopyridazine dihydrochloride] | > 40 mg/kg/os | 17 mg/kg | – | 200 mg/kg | 80 | –
COc1ccc(CCNCC(O)COc2ccc(NN=C(C)C)nn2)cc1OC.Cl.Cl (stereo not drawn) [3-{3[2(3,4-dimethoxyphenyl)ethyl]amino-2-hydroxypropoxy}6-isopropylidenhydrazinopyridazine dihydrochloride] | > 60 mg/kg/os | 39 mg/kg | – | 300 mg/kg | 531 | –
NNc1nncc2ccccc12 [Hydralazine, reference compound] | 6.0 mg/kg/os | 8.1 mg/kg | 680 µM | – | 1 | –
CC(CCc1ccccc1)NCC(O)c1ccc(O)c(C(N)=O)c1 (stereo not drawn) [Labetalol, reference compound] | > 100 mg/kg/os | 400 mg/kg | > 10000 µM | – | – | –
CC(C)NCC(O)COc1cccc2ccccc12 (stereo not drawn) [Propanolol, reference compound] | > 100 mg/kg/os | – | – | – | – | > 400 mg/kg
